From article PMC11811597, “Phenomics‐Based Discovery of Novel Orthosteric Choline Kinase Inhibitors” (Angewandte Chemie (International Ed. in English), 2025)

Legend:
ZNF644 = experiment: Competitive affinity-based chemoproteomics (UNC0965 matrix), MCF7 lysate; format: binding, human; details: 20 μM competitor, n=2
Description: A-366 and UNC0638 were purchased from Tocris. ARIAD and V-11-07-11 were purchased from Wuxi Apptec. UNC0737 and UNC0965 were synthesised as previously described.[1] Hemicholinium-3 and pyruvate kinase/lactic dehydrogenase enzymes were purchased from Sigma Aldrich. Aqueous and organic solvents were MS-grade and acquired by Sigma Aldrich unless stated otherwise.
MDA-MB-231, MCF7 and HEK293 cells were cultured in DMEM (Gibco, #11965092) supplemented with 10% FBS. K562 were cultured in IMDM (Gibco, #12440053) supplemented with 10% FBS. HepG2 were cultured in MEM (Gibco, #11095080) supplemented with 10 % FBS. […]
cultured in McCoy’s 5A (Sigma, M8403) supplemented with 10 % FBS and 1x GlutaMAX (Gibco, #35050061). Cells were maintained at 37 °C in a humidified 5% CO2 atmosphere. Peripheral blood mononuclear cells (PBMC) were isolated from healthy blood donors by density centrifugation. […]
Cell Titer-Glo® reagent was added to each well and total luminescence readings were performed within 15 min using the PHERAstar FSX (BMG Labtech). […]
Digested samples were analysed by nano-UPLC–MS/MS using a Dionex Ultimate 3000 nano UPLC fitted with an EASY spray column (75 μm × 500 mm, 2 μm particle size, Thermo Scientific), coupled to an Orbitrap Q Exactive instrument. […]

CHKA = CHKA (Homo sapiens, UniProt P35790); experiment: PISA thermal profiling, K562 cell lysates; format: binding; design: endogenous in cells; details: 30 µM; for stabilisation of CHKA (PISA): K562 cell lysates; for effect_CETSA_Lysate (PISA amplitude), CHKA: K562 lysate, 15 min, n=3
Chain of CHKA (P35790 whole entry): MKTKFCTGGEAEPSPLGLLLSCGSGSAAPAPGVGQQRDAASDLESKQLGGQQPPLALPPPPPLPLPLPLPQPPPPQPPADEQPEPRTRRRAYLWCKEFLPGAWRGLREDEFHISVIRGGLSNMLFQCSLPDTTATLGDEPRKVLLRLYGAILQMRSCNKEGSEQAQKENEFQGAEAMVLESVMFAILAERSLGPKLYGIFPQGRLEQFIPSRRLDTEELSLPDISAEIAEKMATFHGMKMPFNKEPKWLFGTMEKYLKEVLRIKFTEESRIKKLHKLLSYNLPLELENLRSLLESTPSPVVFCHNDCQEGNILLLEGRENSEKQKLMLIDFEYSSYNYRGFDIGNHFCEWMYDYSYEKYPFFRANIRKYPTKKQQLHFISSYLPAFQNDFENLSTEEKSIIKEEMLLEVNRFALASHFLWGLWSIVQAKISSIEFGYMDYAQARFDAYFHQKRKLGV
Description: Experiments were performed as described earlier with few modifications. In short, 3 replicates of intact HepG2 cells were treated with 30 µM UNC0638, […] or corresponding volume of DMSO in medium-free experimental buffer for 60 min at 37 °C with end-over-end rotation. For lysates: Washed K562 cells were resuspended in medium-free experimental buffer and lysed by three freeze-thaw cycles. Lysate was centrifugated 20,000 × g for 20 min at 4 °C to remove cell debris. The cleared lysate was treated with 30 µM UNC0638, UNC0373 or corresponding volume of DMSO for 15 min at RT with end-over-end rotation. Each treated cell suspension or lysate was divided into 12 aliquots and subjected to a 12-step heat gradient from 44 °C to 64 °C. All the temperature points were pooled together to form […] individual samples. Soluble fraction was separated from precipitated proteins […]
by centrifugation at 30,000 × g for 20 min at 4 °C. The soluble fractions were collected to fresh tubes and further processed to be analysed with mass spectrometry. Sample handling, TMT labelling, LC-MS/MS analysis, protein identification and data analysis was performed as described earlier.[12] […]
Figure S3: Western blot of elution fractions after chemical pulldown with UNC0965 in MCF7 cell extract pre-incubated with indicated compounds (20 μM) or DMSO.
Figure S4: PISA thermal profiling results in K562 cell lysates. A) Volcano plots of UNC0638 and […]
Dashed lines represent amplitude > 0.05, < - 0.05 and log10(adjusted p-values) > 2 (two-sided two sample t-test, Benjamini-Hochberg corrected, n = 3).
6,924 proteins were identified. B) UNC0737 stabilises CHKA stronger than UNC0638. […]

## COc1cc2c(NC3CCN(C(C)C)CC3)nc(C3CCCCC3)nc2cc1OCCCN1CCCC1 [UNC0638]
ZNF644
  FC vs DMSO (log2 competition), ZNF644: -2.1553
CHKA
  stabilisation of CHKA (PISA): selective stabilisation of CHKA
  effect_CETSA_Lysate (PISA amplitude), CHKA: 0.202

## COc1cc2c(N(C)C3CCN(C(C)C)CC3)nc(C3CCCCC3)nc2cc1OCCCN1CCCC1 [UNC0737]
ZNF644
  FC vs DMSO (log2 competition), ZNF644: 0.3825
CHKA
  stabilisation of CHKA (PISA): selective stabilisation of CHKA
  effect_CETSA_Lysate (PISA amplitude), CHKA: 0.504
